Source: the supplement of paper PMC10307832

Legend:
Test in all cases: relative viability (nuclei count vs DMSO), 5 days (fraction); higher = more cells survive
Motesanib + Alpelisib = compound: CC1(C)CNc2cc(NC(=O)c3cccnc3NCc3ccncc3)ccc21 [Motesanib] + Cc1nc(NC(=O)N2CCC[C@H]2C(N)=O)sc1-c1ccnc(C(C)(C)C(F)(F)F)c1 [Alpelisib] (partner 2 µM)
How it was run: (§1)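 Each reported value is a median over duplicate plates. It expresses relative viability: treated-well nuclei count divided by vehicle-well nuclei count. Lung cancer cell lines in 1536-well plates were dosed by pin tool a day after seeding, alone with one drug or with a fixed anchor-drug dose plus five library-drug doses (not always all listed) in √10 steps, and nuclei were counted after 5 days.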

Motesanib + Dasatinib = compound: CC1(C)CNc2cc(NC(=O)c3cccnc3NCc3ccncc3)ccc21 [Motesanib] + Cc1nc(Nc2ncc(C(=O)Nc3c(C)cccc3Cl)s2)cc(N2CCN(CCO)CC2)n1 [Dasatinib] (partner 0.075 µM)
How it was run: as §1

[1] = compound: C[C@@]1(C(=O)Nc2ccc(F)nc2)CCCN1c1nc(Nc2cc(C3CC3)n[nH]2)c2cccn2n1 + COc1cc2c(Oc3ccc(NC(=O)C4(C(=O)Nc5ccc(F)cc5)CC4)cc3F)ccnc2cc1OCCCN1CCOCC1 [Foretinib] (partner 0.25 µM)
How it was run: as §1

[2] = compound: C[C@@]1(C(=O)Nc2ccc(F)nc2)CCCN1c1nc(Nc2cc(C3CC3)n[nH]2)c2cccn2n1 + C[C@@H](Oc1cc(-c2cnn(C3CCNCC3)c2)cnc1N)c1c(Cl)ccc(F)c1Cl [Crizotinib] (partner 1 µM)
How it was run: as §1

Cell Line: NCI-H727
- relative viability (Motesanib + Alpelisib; first compound 0.01 µM): 0.599
- relative viability (Motesanib + Alpelisib; first compound 0.03162 µM): 0.678
- relative viability (Motesanib + Alpelisib; first compound 0.1 µM): 0.504
- relative viability (Motesanib + Alpelisib; first compound 0.3162 µM): 0.514
- relative viability (Motesanib + Alpelisib; first compound 1 µM): 0.602
- relative viability (Motesanib + Dasatinib; first compound 0.01 µM): 0.39
- relative viability (Motesanib + Dasatinib; first compound 0.03162 µM): 0.241
- relative viability (Motesanib + Dasatinib; first compound 0.1 µM): 0.404
- relative viability (Motesanib + Dasatinib; first compound 0.3162 µM): 0.448
- relative viability (Motesanib + Dasatinib; first compound 1 µM): 0.34
- relative viability ([1]; first compound 0.04 µM): 0.694
- relative viability ([1]; first compound 0.1265 µM): 0.396
- relative viability ([1]; first compound 0.4 µM): 0.357
- relative viability ([1]; first compound 1.265 µM): 0.324
- relative viability ([2]; first compound 0.04 µM): 0.687
- relative viability ([2]; first compound 0.1265 µM): 0.436
- relative viability ([2]; first compound 0.4 µM): 0.259
- relative viability ([2]; first compound 1.265 µM): 0.211

Cell Line: NCI-H838
- relative viability (Motesanib + Alpelisib; first compound 0.01 µM): 0.992
- relative viability (Motesanib + Alpelisib; first compound 0.03162 µM): 1.02
- relative viability (Motesanib + Alpelisib; first compound 0.1 µM): 1.08
- relative viability (Motesanib + Alpelisib; first compound 0.3162 µM): 0.982
- relative viability (Motesanib + Alpelisib; first compound 1 µM): 1.03
- relative viability (Motesanib + Dasatinib; first compound 0.01 µM): 0.301
- relative viability (Motesanib + Dasatinib; first compound 0.03162 µM): 0.274
- relative viability (Motesanib + Dasatinib; first compound 0.1 µM): 0.333
- relative viability (Motesanib + Dasatinib; first compound 0.3162 µM): 0.307
- relative viability (Motesanib + Dasatinib; first compound 1 µM): 0.391
- relative viability ([1]; first compound 0.04 µM): 1.08
- relative viability ([1]; first compound 0.1265 µM): 0.819
- relative viability ([1]; first compound 0.4 µM): 0.631
- relative viability ([1]; first compound 1.265 µM): 0.887
- relative viability ([2]; first compound 0.04 µM): 0.868
- relative viability ([2]; first compound 0.1265 µM): 0.67
- relative viability ([2]; first compound 0.4 µM): 0.621
- relative viability ([2]; first compound 1.265 µM): 0.708

Cell Line: NCI-H1355
- relative viability (Motesanib + Alpelisib; first compound 0.01 µM): 0.825
- relative viability (Motesanib + Alpelisib; first compound 0.03162 µM): 0.831
- relative viability (Motesanib + Alpelisib; first compound 0.1 µM): 0.937
- relative viability (Motesanib + Alpelisib; first compound 0.3162 µM): 0.933
- relative viability (Motesanib + Alpelisib; first compound 1 µM): 0.828
- relative viability (Motesanib + Dasatinib; first compound 0.01 µM): 0.74
- relative viability (Motesanib + Dasatinib; first compound 0.03162 µM): 0.548
- relative viability (Motesanib + Dasatinib; first compound 0.1 µM): 0.717
- relative viability (Motesanib + Dasatinib; first compound 0.3162 µM): 0.732
- relative viability (Motesanib + Dasatinib; first compound 1 µM): 0.684
- relative viability ([1]; first compound 0.04 µM): 0.929
- relative viability ([1]; first compound 0.1265 µM): 0.87
- relative viability ([1]; first compound 0.4 µM): 0.701
- relative viability ([1]; first compound 1.265 µM): 1
- relative viability ([2]; first compound 0.04 µM): 0.896
- relative viability ([2]; first compound 0.1265 µM): 0.824
- relative viability ([2]; first compound 0.4 µM): 0.728
- relative viability ([2]; first compound 1.265 µM): 1.02

Cell Line: NCI-H1437
- relative viability (Motesanib + Alpelisib; first compound 0.01 µM): 0.983
- relative viability (Motesanib + Alpelisib; first compound 0.03162 µM): 0.979
- relative viability (Motesanib + Alpelisib; first compound 0.1 µM): 0.901
- relative viability (Motesanib + Alpelisib; first compound 0.3162 µM): 1.02
- relative viability (Motesanib + Alpelisib; first compound 1 µM): 1.07
- relative viability (Motesanib + Dasatinib; first compound 0.01 µM): 0.266
- relative viability (Motesanib + Dasatinib; first compound 0.03162 µM): 0.22
- relative viability (Motesanib + Dasatinib; first compound 0.1 µM): 0.383
- relative viability (Motesanib + Dasatinib; first compound 0.3162 µM): 0.575
- relative viability (Motesanib + Dasatinib; first compound 1 µM): 0.405
- relative viability ([1]; first compound 0.04 µM): 1.31
- relative viability ([1]; first compound 0.1265 µM): 1.2
- relative viability ([1]; first compound 0.4 µM): 1.04
- relative viability ([1]; first compound 1.265 µM): 1.11
- relative viability ([2]; first compound 0.04 µM): 0.932
- relative viability ([2]; first compound 0.1265 µM): 0.714
- relative viability ([2]; first compound 0.4 µM): 0.561
- relative viability ([2]; first compound 1.265 µM): 0.762

Cell Line: NCI-H1563
- relative viability (Motesanib + Alpelisib; first compound 0.01 µM): 0.985
- relative viability (Motesanib + Alpelisib; first compound 0.03162 µM): 0.92
- relative viability (Motesanib + Alpelisib; first compound 0.1 µM): 0.946
- relative viability (Motesanib + Alpelisib; first compound 0.3162 µM): 0.879
- relative viability (Motesanib + Alpelisib; first compound 1 µM): 0.95
- relative viability (Motesanib + Dasatinib; first compound 0.01 µM): 0.424
- relative viability (Motesanib + Dasatinib; first compound 0.03162 µM): 0.44
- relative viability (Motesanib + Dasatinib; first compound 0.1 µM): 0.447
- relative viability (Motesanib + Dasatinib; first compound 0.3162 µM): 0.473
- relative viability (Motesanib + Dasatinib; first compound 1 µM): 0.421
- relative viability ([1]; first compound 0.04 µM): 1
- relative viability ([1]; first compound 0.1265 µM): 0.975
- relative viability ([1]; first compound 0.4 µM): 0.784
- relative viability ([1]; first compound 1.265 µM): 0.83
- relative viability ([2]; first compound 0.04 µM): 0.829
- relative viability ([2]; first compound 0.1265 µM): 0.91
- relative viability ([2]; first compound 0.4 µM): 0.947
- relative viability ([2]; first compound 1.265 µM): 0.828

Cell Line: NCI-H1651
- relative viability (Motesanib + Alpelisib; first compound 0.01 µM): 0.987
- relative viability (Motesanib + Alpelisib; first compound 0.03162 µM): 0.909
- relative viability (Motesanib + Alpelisib; first compound 0.1 µM): 0.823
- relative viability (Motesanib + Alpelisib; first compound 0.3162 µM): 0.883
- relative viability (Motesanib + Alpelisib; first compound 1 µM): 1.06
- relative viability (Motesanib + Dasatinib; first compound 0.01 µM): 0.408
- relative viability (Motesanib + Dasatinib; first compound 0.03162 µM): 0.339
- relative viability (Motesanib + Dasatinib; first compound 0.1 µM): 0.384
- relative viability (Motesanib + Dasatinib; first compound 0.3162 µM): 0.451
- relative viability (Motesanib + Dasatinib; first compound 1 µM): 0.432
- relative viability ([1]; first compound 0.04 µM): 0.775
- relative viability ([1]; first compound 0.1265 µM): 0.704
- relative viability ([1]; first compound 0.4 µM): 0.621
- relative viability ([1]; first compound 1.265 µM): 0.895
- relative viability ([2]; first compound 0.04 µM): 0.762
- relative viability ([2]; first compound 0.1265 µM): 0.896
- relative viability ([2]; first compound 0.4 µM): 0.775
- relative viability ([2]; first compound 1.265 µM): 0.846

Cell Line: NCI-H1666
- relative viability (Motesanib + Alpelisib; first compound 0.01 µM): 0.799
- relative viability (Motesanib + Alpelisib; first compound 0.03162 µM): 0.977
- relative viability (Motesanib + Alpelisib; first compound 0.1 µM): 0.949
- relative viability (Motesanib + Alpelisib; first compound 0.3162 µM): 1.02
- relative viability (Motesanib + Alpelisib; first compound 1 µM): 1.16
- relative viability (Motesanib + Dasatinib; first compound 0.01 µM): 0.783
- relative viability (Motesanib + Dasatinib; first compound 0.03162 µM): 0.747
- relative viability (Motesanib + Dasatinib; first compound 0.1 µM): 0.89
- relative viability (Motesanib + Dasatinib; first compound 0.3162 µM): 0.797
- relative viability (Motesanib + Dasatinib; first compound 1 µM): 0.802
- relative viability ([1]; first compound 0.04 µM): 0.925
- relative viability ([1]; first compound 0.1265 µM): 0.909
- relative viability ([1]; first compound 0.4 µM): 0.778
- relative viability ([1]; first compound 1.265 µM): 0.784
- relative viability ([2]; first compound 0.04 µM): 0.811
- relative viability ([2]; first compound 0.1265 µM): 0.845
- relative viability ([2]; first compound 0.4 µM): 0.708
- relative viability ([2]; first compound 1.265 µM): 0.574
